The source of these data is PubChem BioAssay AID1259420 (Broad Institute, 2018).

Values joined by “and” are separate entries in the source; they are usually repeats but may differ in a detail not shown here. Equal values may be shown once. Inconclusive results are not listed. Active and inactive are the calls of the source. No rule for the calls is given here.

In this experiment the test system is Toxoplasma gondii growth in host cells, no IFN-gamma. The experiment is described as follows: T. gondii intracellular growth, IFN-gamma absent, dose response, cell-based (AID 1259420).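 Also: host cells were HeLa; final incubation lasted 72 hours.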

For `O=S(=O)(c1cccc(F)c1)N1CC[C@@H]2[C@H]1c1cc(C#Cc3ccccc3F)ccc1N[C@@H]2CO`, the half-maximal activity concentration (AC50) – broadly, the concentration at which the activity in the assay is half-maximal – was 17.3 µM.

Consider `COc1cccc(S(=O)(=O)N2CCCCN3[C@H](C2)[C@H](c2ccc(C#CCC(C)C)cc2)[C@@H]3CO)c1`, for which the half-maximal activity concentration (AC50) was 11.9 µM and 15.5 µM.

With `CN(C)C(=O)c1cccc(-c2ccc3c(c2)[C@@H]2[C@@H](CCN2C(=O)Cc2ccccc2)[C@@H](CO)N3)c1`, the half-maximal activity concentration (AC50) is 21.7 µM.

Consider `C[C@H](CO)N1C[C@H](C)[C@H](CN(C)C(=O)Nc2ccc(C(F)(F)F)cc2)Oc2c(NC(=O)c3ccc(-c4nccs4)cc3)cccc2C1=O`, for which the AC50 is 9.48 µM.

In the case of `CCCN1CCC[C@@H]2Cc3[nH]ncc3C[C@H]21`, the AC50 was > 39 µM (inactive).

Turning to `N#Cc1cccc(-c2ccc3c(c2)[C@@H]2[C@@H](CCN2S(=O)(=O)c2ccc(F)cc2)[C@H](CO)N3)c1`, the concentration at half-maximal activity (AC50) is 10.1 µM.

As to `C=CCNc1nnc(Cl)c2ccccc12`, the AC50 was 17.8 µM.

As for `CCCC(C)c1c(-c2ccccc2)ncn1Cc1cnc(C)cn1` (configuration not stated), the AC50 was 36.1 µM.

With `COc1ccccc1-c1nc(CN2CCc3c(sc4c3CCCC4)C2c2ccccc2)c(C)o1` (configuration not stated), the half-maximal activity concentration (AC50) was 22.4 µM.

On to `CN1C(=O)CC2C1CCN2S(=O)(=O)Cc1ccccc1` (configuration not stated), for which the AC50 is > 39 µM (inactive).

Regarding `O=C(C1CCC1)N1C[C@@H]2N[C@H](C1)C2c1ccc(/C=C/c2ccccc2)cc1` (some centres not stated), the concentration at half-maximal activity (AC50) is 12.7 µM and 11.5 µM.

Regarding `N#C[C@H]1[C@@H](c2ccc(-c3cccc(F)c3)cc2)[C@@H](CO)N1C(=O)NC1CCCC1`, the AC50 was > 39 µM (inactive).

As for `O=S(=O)(c1ccc(-c2ccccc2)cc1)N1C[C@@H]2N[C@H](C1)C2c1ccc(-c2ccncc2)cc1` (some centres not stated), the AC50 is 16.1 µM.

Consider `COc1ccc(S(=O)(=O)N2CCCCN3[C@H](CO)[C@H](c4ccc(C#CCC(C)C)cc4)[C@H]3C2)cc1`, for which the AC50 is 8.14 µM and 12.7 µM.

In the case of `Cc1cc(C(C)(C)CC(C)(C)C)ccc1OCCOCC[N+](C)(C)Cc1ccccc1`, the concentration at half-maximal activity (AC50) is 12.5 µM.

In the case of `COc1ccccc1C(=O)Nc1ccc(-c2nc(-c3ccc(C)cc3C)co2)cc1`, the AC50 is 21 µM.

With `CC(=O)O.CC(=O)O.[Cl][Pt+2][Cl].[NH-]C1CCCCC1.[NH2-]`, the half-maximal activity concentration (AC50) was 19.4 µM.

In the case of `COCCC(=O)C1Cc2nc(-c3ccccc3)sc2N1CC1CC1` (configuration not stated), the AC50 is 25.2 µM.

In the case of `Cc1ccccc1S(=O)(=O)N1CC[C@@H]2[C@H]1c1cc(-c3cccc(F)c3)ccc1N(C)[C@H]2CO`, the concentration at half-maximal activity (AC50) was 10.7 µM.

In the case of `COc1cccc(NC(=O)N2CC(=O)N3[C@H](CO)[C@@H](c4ccc(C#CCC5CCCC5)cc4)[C@@H]3C2)c1`, the AC50 was 14.4 µM and 13.4 µM.

For `COc1ccccc1NC(=O)N1CCCCN2[C@H](CO)[C@H](c3ccc(-c4cccc(C#N)c4)cc3)[C@@H]2C1`, the concentration at half-maximal activity (AC50) is 33.7 µM.

In the case of `N#Cc1cccc(-c2ccc3c(c2)[C@H]2[C@H](CCN2Cc2ccc4c(c2)OCO4)[C@H](CO)N3)c1`, the concentration at half-maximal activity (AC50) is 17.2 µM.

Consider `COc1ccccc1C1CN(Cc2cccc(O)c2)Cc2ccccc2O1` (configuration not stated), for which the concentration at half-maximal activity (AC50) was 22.8 µM.

Regarding `COc1cc2nc(N3CCN(C(=O)c4ccco4)CC3)nc(N)c2cc1OC`, the AC50 was 19 µM.

For the compound `O=S(=O)(c1ccccc1)N(CC(F)(F)F)c1ccc(C(O)(C(F)(F)F)C(F)(F)F)cc1`, the AC50 was 14.2 µM.

On to `COc1cccc(CN2C[C@@H]3N[C@H](C2)C3c2ccc(-c3ccccc3C)cc2)c1` (some centres not stated), for which the concentration at half-maximal activity (AC50) was 12.3 µM.

In the case of `CC(C)NC(=O)[C@H]1C[C@H]2CCN(CCOCc3ccccc3)C[C@@H]2O1`, the AC50 was > 39 µM (inactive).

As to `C[C@@H]1CN(Cc2ccc(F)cc2)CCN1C(=O)COc1ccc(Cl)cc1NC(N)=O`, the AC50 was > 39 µM (inactive).

On to `Cc1ccccc1C(=O)N1CCC(N2CCOCC2)CC1C(=O)O` (configuration not stated), for which the AC50 was > 39 µM (inactive).

Consider `NCCCCCCCCCCNS(=O)(=O)c1cccc2c(Cl)cccc12`, for which the concentration at half-maximal activity (AC50) is 15.9 µM.

Consider `COc1cccc(NC(=O)N2CC(=O)N3[C@H](CO)[C@H](c4ccc(C#CCC5CCCC5)cc4)[C@@H]3C2)c1`, for which the concentration at half-maximal activity (AC50) was 15.9 µM.

As for `N#C[C@@H]1[C@@H](c2ccc(-c3cccc(F)c3)cc2)[C@H](CO)N1C(=O)NC1CCCC1`, the AC50 is > 20 µM (inactive).

`Cc1ccccc1S(=O)(=O)N1CCCCN2[C@H](CO)[C@H](c3ccc(C#CCN(C)C)cc3)[C@H]2C1`: the half-maximal activity concentration (AC50) was 33.7 µM.

On to `CC(C)C#Cc1ccc([C@H]2[C@@H](C#N)N(C(=O)c3cccc(F)c3)[C@H]2CO)cc1`, for which the AC50 was 26.4 µM.

In the case of `Cc1cccc(S(=O)(=O)N2CC[C@@H]3[C@H](CO)Nc4ccc(-c5ccccc5F)cc4[C@@H]32)c1`, the AC50 was 17.2 µM.

Regarding `O=C(C[C@H]1CC[C@H]2[C@@H](COC[C@@H](O)CN2S(=O)(=O)c2ccccc2F)O1)N1CCC(Cc2ccccc2)CC1`, the AC50 was > 20 µM (inactive).

In the case of `Cc1ccccc1-c1ccc(C2[C@H]3CNC[C@@H]2N3Cc2ccc3c(c2)OCO3)cc1` (some centres not stated), the AC50 is > 20 µM (inactive).

Turning to `OC[C@H]1O[C@@H](n2cnc3c(NC4CCCC4)nc(Cl)nc32)[C@H](O)[C@@H]1O`, the AC50 was > 39 µM (inactive).

Consider `O=S(=O)(c1cccs1)N1CCCCN2[C@H](CO)[C@H](c3ccc(/C=C/c4ccccc4)cc3)[C@@H]2C1`, for which the concentration at half-maximal activity (AC50) is 29 µM.

Regarding `CC(C)NC(=O)N1CC(=O)N2[C@H](C1)[C@@H](c1ccc(/C=C/c3ccccc3)cc1)[C@@H]2CO`, the AC50 is 17.9 µM.

As to `Cc1ccc2c(c1)c(Cn1cc(-c3sccc3C)nn1)nn2C`, the AC50 was 31.1 µM and 25.4 µM.

Take `Nc1ncnc2c1ncn2[C@@H]1O[C@H](C[C@@H](N)CC[C@H](N)C(=O)O)[C@@H](O)[C@H]1O`: the half-maximal activity concentration (AC50) is 1.38 µM.

As to `O=C(c1ccc(F)cc1)N1CC(=O)N2[C@H](C1)[C@H](c1ccc(C#CCC3CCCC3)cc1)[C@@H]2CO`, the AC50 was 16.9 µM.

On to `CCCc1ccc(S(=O)(=O)N2CCC[C@@H]2C(=O)NCCc2csc(-c3ccccc3)n2)cc1`, for which the AC50 is 18.7 µM.

`COc1cccc(-c2nc3c(s2)CN(S(=O)(=O)c2cc(C)ccc2C)CC3)c1`: the half-maximal activity concentration (AC50) was 7.12 µM.

Regarding `CCOC(=O)c1nn(Cc2ccccc2)c2c1CN(C(=O)CN1CC(c3ccccc3)CC1=O)CC2` (configuration not stated), the AC50 was 28.6 µM.

Consider `COc1ccccc1-c1ccc(C2[C@H]3CNC[C@@H]2N3S(=O)(=O)c2ccc(F)cc2)cc1` (some centres not stated), for which the AC50 was > 20 µM (inactive).

As to `CCc1cnc(N2[C@H](C#N)[C@@H](c3ccc(C#Cc4ccccc4F)cc3)[C@@H]2CO)s1`, the half-maximal activity concentration (AC50) is 16.3 µM.

With `OC[C@@H]1Nc2ccc(-c3cccc(F)c3)cc2[C@H]2[C@@H]1CCN2Cc1ccc(F)cc1`, the AC50 is > 20 µM (inactive).

Regarding `O=C(c1cnccn1)N1CC(=O)N2[C@H](CO)[C@@H](c3ccc(-c4cccc(F)c4)cc3)[C@@H]2C1`, the AC50 is 20 µM.

Consider `C[C@H](O[C@H]1OCCN(Cc2n[nH]c(=O)[nH]2)[C@H]1c1ccc(F)cc1)c1cc(C(F)(F)F)cc(C(F)(F)F)c1`, for which the concentration at half-maximal activity (AC50) is 21.5 µM.

`COCCn1cc2c(n1)C(CNC(=O)CS(C)(=O)=O)OCC2` (configuration not stated): the AC50 is > 39 µM (inactive).

On to `O=C(CCCCCNc1nc(=S)[nH]c2ccccc12)N1CCC(O)(c2cccc(C(F)(F)F)c2)CC1`, for which the AC50 was > 39 µM (inactive).

Take `CCCCCCC(C)(C)c1ccc(C2CC(O)CCC2CCCO)c(O)c1` (configuration not stated): the half-maximal activity concentration (AC50) was 17.9 µM.

With `N#C[C@@H]1[C@H](c2ccc(-c3cccc(F)c3)cc2)[C@H](CO)N1C(=O)NC1CCCC1`, the AC50 was 36 µM and 24 µM.

As for `Cc1sc2ncnc(NCC3CCN(c4cnn(C)c(=O)c4)C3)c2c1C` (configuration not stated), the AC50 was 29.6 µM.

For the compound `Cc1ccc(CNC2=NCCNC23CCN(S(=O)(=O)c2ccc4c(c2)CCCC4)CC3)cc1`, the concentration at half-maximal activity (AC50) is 23 µM.
